Experimental data as given in patent EP4755396A1, “TREATMENT OF P53 GENE MUTATION OR DEFECT NEGATIVE CANCER AND TUMOR PATIENTS” (Ascentawits Pharmaceuticals, Ltd., priority 2023, dated 2025).

Tests used:
Format in all cases: cell-based
HPAF-II cells [1] = test: Cell cycle G2/M arrest, PI staining flow cytometry; details: HPAF-II cells with p53 pathogenic mutation, 0.1 nM AST-3424, 5 µM Nutlin-3, 24 hours (Figure 5)
Protocol: Overview of the experimental process: • 1) H460/HPAF-II cell suspensions were added to a 24-well plate, with a cell density of 100000 /well and 995 µL of medium per well. • 2) The cells were cultured overnight in an incubator at 37°C, 5% CO2. • 3) Compound Treatment
After 24 hours of cell plating, according to the protocol, each cell line experiment was grouped as: Monotherapy: After 24 hours of cell plating, each well was supplied with 5µL of test compounds at different concentrations: 1% DMSO, 5 µM Nutlin-3 and 0.1 nM AST-3424, shaken gently to ensure even mixing, and then placed at 37°C, 5% CO2 in an incubator.
To cells AST-3424 pre-treatment for 2 hours followed by co-treatment with Nutlin-3 for 24 hours.
To cells Nutlin-3 pre-treatment for 2 hours followed by co-treatment with AST -3424 for 24 hours.
Co-treatment with AST-3424 and Nutlin-3 for 24 hours.
4) The cells were digested, centrifuged at 1000 g at 4°C, washed once with pre-cooled PBS, centrifuged at 1000 g at 4°C, and fixed with 1 mL of pre-cooled 70% ethanol at -20°C overnight.
5) The cells were centrifuged at 3000g at 4°C, washed once with pre-cooled PBS (phosphate buffer), centrifuged at 3000g at 4°C. Prepare PI staining solution. […] Flow cytometric detection was performed on the same day, and the proportion of cells in different cell cycle phases was analyzed using FlowJo. […]

[2] = tested on: Ser15-p53, Ser20-p53, Total p53, MDM2 and p21 proteins in H460 cells; test: WB detection of p53 protein pathway; details: 0.1-1 nM AST-3424, 5 µM Nutlin-3, 24 hours, three experiments (Figures 11-13)
Protocol: Overview of the experimental process: • 1) H460 cell suspension was added to a 24-well plate, with a cell density of 80000 /well and 995 µL of medium per well. • 2) The cells were cultured overnight in an incubator at 37°C, 5% CO2. • 3) Compound Treatment
After 24 hours of cell plating, according to the protocol, each cell line experiment was grouped as: Monotherapy: After 24 hours of cell plating, each well was supplied with 5µL of test compounds at different concentrations: 0.5% DMSO, 0.1nM AST-3424 and 5 µM Nutlin-3, shaken gently to ensure even mixing, and then placed at 37°C, 5% CO2 in an incubator.
Combination therapy: After 24 hours of cell plating, each well was supplied with 5µL of test compounds at different concentrations. The cells were pre-treated with 5µM Nutlin-3 for 2 hours and then were added with 0.1nM AST-3424, shaken gently to ensure even mixing, and then placed at 37°C, 5% CO2 in an incubator.
4) Cell protein lysates were collected for WB analysis.
Combination therapy group: • Adding 0.1 nM AST-3424 for pre-treatment for 2 hours, and then adding 5 µM Nutlin-3 for co-treatment for 22 hours; • Adding 0.3 nM AST-3424 for pre-treatment for 2 hours, and then adding 5 µM Nutlin-3 for co-treatment for 22 hours; • Adding 1 nM AST-3424 for pre-treatment for 2 hours, and then adding 5 µM Nutlin-3 for co-treatment for 22 hours.

H460 cells = test: Cell proliferation experiment (3 days) with different administration sequences; details: after the addition of Nutlin-3, different administration sequences (Figure 2)
Protocol: Further combination therapy experiments with different administration sequences of AST-3424 were carried out. Dosing regimens were set for the experiments.
Monotherapy: Each well was added with AST-3424 alone, Nutlin-3 alone, 5 µL of each compound in different concentrations (400 times) and 5 µL of medium. The cells were treated (DMSO 0.25% and 0.50%).
Combination therapy: Cells were treated with 5 µL each of AST-3424 and Nutlin-3 in different administration sequences: AST-3424 pre-treatment for 2 hours followed by co-treatment with Nutlin-3 for 6 hours; Nutlin-3 pre-treatment for 2 hours followed by co-treatment with AST-3424 for 6 hours; and co-treatment with AST-3424 and Nutlin-3 for 6 hours.

[3] = tested on: p53, Rad51, MDM2 and p21 proteins in HPAF-II cells; test: WB detection of p53 pathway proteins in p53 mutant cells; details: 60 nM AST, 8 µM Nutlin-3, 24 hours (Figure 23)
Protocol: • 1)HPAF-II cell suspension was added to a 24-well plate, with a cell density of 300000 /well and 995 µL of medium per well. • 2) The cells were cultured overnight in an incubator at 37°C, 5% CO2. • 3) Compound treatment. After 24 hours of cell plating, the cells were grouped and dosed according to different cells.
HPAF-II were grouped as: 1% DMSO treated group, 60nM AST treated group, 8 µM Nutlin-3 treated group, AST 60nM + Nutlin-3 8 µM treated group.
Monotherapy: After 24 hours of cell plating, each well was supplied with 5µL of test compounds at different concentrations: 1% DMSO, AST 1.5nM, Nutlin-3 1µM, AST 60nM and Nutlin-3 8µM, shaken gently to ensure even mixing, and then placed at 37°C, 5% CO2 in an incubator.
Combination therapy: After 24 hours of cell plating, each well was supplied with 5µL of 1µM Nutlin-3 and Nutlin-3 8µM respectively for pre-treatment four 2 hours. Then the corresponding cells were added with […] of 1.5nM AST and 60nM AST, shaken gently to ensure even mixing, and then placed at 37°C, 5% CO2 in an incubator.
4) After incubating the 24-well plates in a 37°C, 5% CO2 incubator for 24 hours, the cell protein lysate was collected for WB detection, and the WB detection results were shown in Figure 23. […]

HPAF-II cells [4] = test: In vitro cell proliferation inhibition (96-well, CTG, 72 hours); details: Homo sapiens, monotherapy, applicant's previous cancer cell proliferation inhibition test data

## COc1ccc(C2=NC(c3ccc(Cl)cc3)C(c3ccc(Cl)cc3)N2C(=O)N2CCNC(=O)C2)c(OC(C)C)c1 (racemic) [Nutlin-3]
HPAF-II cells [1]
  cell cycle (G0/G1, S, G2/M phases): no effect
[2]
  phosphorylation of p53 (Ser15-p53 and Ser20-p53), protein expression of total-p53, MDM2 and p21 (WB): upregulated the expression levels of p53 and its downstream proteins p21 and MDM2

## C[C@H](OP(=O)(N1CC1)N1CC1)c1ccc([N+](=O)[O-])c(Oc2cccc(C(=O)N(C)C)c2)c1 [AST-3424]
H460 cells
  proliferation inhibition rate of AST-3424: significantly increased

## O=[N+]([O-])c1ccc(C(OP(=O)(N2CC2)N2CC2)C(F)(F)F)cc1Oc1ccc(-c2ccc(F)cc2)c(F)c1 (stereo not drawn) [AST]
[3]
  expression of RAD51 protein (WB): promoted the expression of RAD51 protein
  expression of p53, its downstream proteins p21 and MDM2 (WB): no effect
HPAF-II cells [4]
  IC50: 329 nM
